No end group written: not given here.
How the values were obtained:
[1] = biological target: T1, type I collagen (pCcollagen I) (Homo sapiens, UniProt P02452); type: biochemical; conditions: for inhibition of fibril assembly (in words): peptide 2.5 mM
T1 construct: made in house; host or cells: cultured human skin fibroblasts (endogenous procollagen purified from the medium, 14C-labelled)
Method: Assembly of collagen I into fibrils de novo was assayed under conditions employed previously (Miyahara et al., 1982, J. Biol. Chem. 257:8442–8448; Kadler et al., 1987, J. Biol. Chem. 262:15696–15701; Kadler et al., 1990, Ann. N.Y. Acad. Sci. 580:214–224; Kadler et al., 1990, Biochem. J. 268:339–343; Fertala et al., 1996, J. Biol. Chem. 271:14864–14869). In brief, ^14C-labeled type I procollagen was recovered from the medium of cultured human skin fibroblasts and was purified with two chromatographic steps to homogeneity. The type I procollagen was processed to pccollagen I by cleavage with procollagen N-proteinase purified from organ cultures of chick embryo tendons. “pCcollagen” is a partially processed procollagen which is missing the […]. The pCcollagen was then isolated on a gel filtration column. Fibril assembly was assayed in a […] reaction volume in a […] plastic centrifuge tube sealed with a plunger and containing a physiological bicarbonate buffer, […] pCcollagen I, and 15 units/ml procollagen C-proteinase purified from chick embryo tendons. Potentially inhibitory peptides were added to the reaction mixture to final concentrations of 0.5 to 2.5 mM in […] of buffer. After incubation for 0.5 to 24 hours at 37° C., the sample was centrifuged 13,000×g for 10 min. The pellet and supemate fractions were separated by electrophoresis on a 7.5% polyacrylamide gel in SDS and the gel assayed either with a phosphor storage imager (Molecular Dynamics) or by staining with colloidal Coomassie blue (Brilliant Blue, Sigma) and analysis with a densitometer (Personal Densitometer, Molecular Dynamics). Alternatively, the reaction was carried out in a sealed chamber on a microscopic slide and followed by Dark field light microscopy (Zeiss model 009).
F6 contained sequences that spanned the vertebrate collagenase cleavage site of -Gly-le- in the D4 period of the α1(I) chain. […] The peptides were added in concentrations of 2.5 mM to the system for assaying fibril formation by the cleavage of pCcollagen with C-proteinase (Miyahara et al., 1982, J. Biol. Chem. 257:8442–8448; Kadler et al., 1987, J. Biol. Chem. 262:15696–15701; Kadler et al., 1990, Ann. N.Y. Acad. Sci. 580:214–224; Kadler et al., 1990, Biochem. J. 268:339–343; Fertala et al., 1996, J. Biol. Chem. 271:14864–14869).

[2] = biological target: T2, α1-776/796 (telopeptide binding region of type I collagen) (Homo sapiens, UniProt P02452); experiment: Phage display peptide library panning, ligand α1-776/796 peptide in all three cycles; conditions: ligand α1-776/796 x3
T2 construct: host or cells: synthetic peptide
Text: (§1) A comrnmercially-available phage-display peptide library was used to identify peptides that bind to the telopeptide binding region of type I collagen (i.e. amino acid residues 776–797). The library comprised phage particles having about 1.9×10^9 distinct linear peptide sequences.
(§2) For the experiments described in this Example, either type I collagen or a 22-mer synthetic peptide having the amino acid sequence of residues 776–797 of type I collagen was bound to the walls of individual wells of microtiter plates. Aliquots of the phage-display peptide library were added to and incubated with the wells. Thereafter, the microtiter wells were rinsed to remove non-specifically-binding library particles, and specifically-binding library particles were eluted using a solution comprising at least one of: • the 22-mer synthetic peptide having the amino acid sequence of residues 776–797 of type I collagen; • type I collagen; and • glycine HCl buffer having a pH of 2.2.
(§3) Eluted specifically-binding library particles were added to and incubated with microtiter plates having either type I collagen or the 22-mer synthetic peptide bound to the wells thereof, and washing and elution steps were repeated. A total of three cycles of incubation-washing-elution were performed. Following these three cycles, specifically-binding phage particles were isolated, and the amino acid sequence of the peptide encoded by each of these particles was determined by amplifying and sequencing the nucleic acid contained within the particle.
Amino acid sequences of the random peptide region carried by discrete specifically-binding phage particles are indicated in Table II, together with the identity of the ligand bound to the microtiter wells in each of the three incubation-washing-elution cycles. These isolated peptides, or peptides having no more than about fifty, preferably no more than twenty, even more preferably no more than ten, and still more preferably no more than five amino acid residues at one or both ends thereof, may be used to inhibit collagen self-assembly by contacting a collagen molecule such as a collagen triple helix, with one of these peptides.

[3] = biological target: T3, type I collagen (monomeric collagen, Vitrogen 100) (Bos taurus, UniProt P02453); experiment: Competition binding assay on microtiter plates with biotinylated telopeptides
T3 construct: purchased Collagen Biomaterials Vitrogen 100
T3 sequence (P02453 178-1191 limits assumed): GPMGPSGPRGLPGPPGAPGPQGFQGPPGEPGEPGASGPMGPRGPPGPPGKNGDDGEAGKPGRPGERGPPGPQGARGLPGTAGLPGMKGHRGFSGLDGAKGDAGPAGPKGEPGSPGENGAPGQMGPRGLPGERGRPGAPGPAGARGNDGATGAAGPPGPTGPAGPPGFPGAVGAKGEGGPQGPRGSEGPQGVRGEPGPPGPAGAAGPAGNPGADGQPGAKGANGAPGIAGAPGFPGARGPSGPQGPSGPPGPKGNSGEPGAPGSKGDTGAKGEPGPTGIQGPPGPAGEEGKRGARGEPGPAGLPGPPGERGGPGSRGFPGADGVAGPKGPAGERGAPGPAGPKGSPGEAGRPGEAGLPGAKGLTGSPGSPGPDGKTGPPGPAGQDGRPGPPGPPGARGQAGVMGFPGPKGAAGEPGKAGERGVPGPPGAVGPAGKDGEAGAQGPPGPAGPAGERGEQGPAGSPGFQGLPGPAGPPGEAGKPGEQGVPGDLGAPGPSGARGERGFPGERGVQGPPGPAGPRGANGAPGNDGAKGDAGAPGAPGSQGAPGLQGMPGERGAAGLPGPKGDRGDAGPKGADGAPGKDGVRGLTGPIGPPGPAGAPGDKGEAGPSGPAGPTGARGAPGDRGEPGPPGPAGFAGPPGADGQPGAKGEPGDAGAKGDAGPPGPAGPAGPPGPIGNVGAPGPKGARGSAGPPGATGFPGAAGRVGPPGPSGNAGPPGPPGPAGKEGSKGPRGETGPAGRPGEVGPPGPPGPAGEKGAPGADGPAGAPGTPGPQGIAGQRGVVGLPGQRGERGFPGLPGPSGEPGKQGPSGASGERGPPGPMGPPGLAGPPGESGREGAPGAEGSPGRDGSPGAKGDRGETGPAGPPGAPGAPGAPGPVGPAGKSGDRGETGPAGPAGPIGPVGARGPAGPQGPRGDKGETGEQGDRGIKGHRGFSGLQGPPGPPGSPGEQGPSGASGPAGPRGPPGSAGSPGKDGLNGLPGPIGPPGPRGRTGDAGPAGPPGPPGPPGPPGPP
Method: A collagen assembly inhibitory peptide is “biologically active” if it is capable of inhibiting collagen self-assembly in any one of the assays described herein. For example, in a high throughput assay described herein in the description of the data shown in FIGS. 8 and 9, a series of wells in a microtiter plate are coated with monomeric collagen. An amount of HCl is added to each well and the plates are dried. The plates are rinsed in buffer and bovine serum albumin (BSA) is added to block non-specific binding sites on the collagen. Samples containing labeled peptide (for example, biotinylated peptide) which is known to inhibit collagen self-assembly and unlabeled test peptide at various concentrations are premixed and are added to the wells. […] The wells are incubated for a period of time, the plates are washed and streptavidin conjugated to alkaline phosphatase is added. Incubation is continued for a further period of time following which a developing reagent is added to the wells. The amount of binding of the labeled peptide to the collagen is assessed and the degree of inhibition of binding by the test peptide is also assessed. Any test peptide which inhibits binding of the labeled peptide is isolated and is tested further for the ability to inhibit collagen self-assembly in the assays described herein in the description of FIGS. 1, 2 and 3.
To define the telopeptide binding site with a competitive assay, 96-well titiation plates (Immulon 3, Dynatech Laboratories, Inc.) were used. Seventy microliters of the solution containing […] of monomeric collagen (Vitrogen 100, Collagen Biomaterials) in 0.01 N HCl was added to each well, and the plates were dried at room temperature. The plates were rinsed with sterile phosphate buffered saline and non-specific binding sites were blocked with 1% bovine serum albumin. […] As a negative control, peptide α2-218/233 was used at concentrations from […]. […] After 2 hours of incubation, the reaction was measured with microtiter plate reader (Dynatech Laboratories) using a 405 nanometer filter. […]

type I collagen = type I collagen (Homo sapiens, UniProt P02452); experiment: Phage display peptide library panning, ligand type I collagen in all three cycles; type: binding; conditions: ligand Type I Collagen x3
type I collagen, sequence (P02452 162-1218 limits assumed): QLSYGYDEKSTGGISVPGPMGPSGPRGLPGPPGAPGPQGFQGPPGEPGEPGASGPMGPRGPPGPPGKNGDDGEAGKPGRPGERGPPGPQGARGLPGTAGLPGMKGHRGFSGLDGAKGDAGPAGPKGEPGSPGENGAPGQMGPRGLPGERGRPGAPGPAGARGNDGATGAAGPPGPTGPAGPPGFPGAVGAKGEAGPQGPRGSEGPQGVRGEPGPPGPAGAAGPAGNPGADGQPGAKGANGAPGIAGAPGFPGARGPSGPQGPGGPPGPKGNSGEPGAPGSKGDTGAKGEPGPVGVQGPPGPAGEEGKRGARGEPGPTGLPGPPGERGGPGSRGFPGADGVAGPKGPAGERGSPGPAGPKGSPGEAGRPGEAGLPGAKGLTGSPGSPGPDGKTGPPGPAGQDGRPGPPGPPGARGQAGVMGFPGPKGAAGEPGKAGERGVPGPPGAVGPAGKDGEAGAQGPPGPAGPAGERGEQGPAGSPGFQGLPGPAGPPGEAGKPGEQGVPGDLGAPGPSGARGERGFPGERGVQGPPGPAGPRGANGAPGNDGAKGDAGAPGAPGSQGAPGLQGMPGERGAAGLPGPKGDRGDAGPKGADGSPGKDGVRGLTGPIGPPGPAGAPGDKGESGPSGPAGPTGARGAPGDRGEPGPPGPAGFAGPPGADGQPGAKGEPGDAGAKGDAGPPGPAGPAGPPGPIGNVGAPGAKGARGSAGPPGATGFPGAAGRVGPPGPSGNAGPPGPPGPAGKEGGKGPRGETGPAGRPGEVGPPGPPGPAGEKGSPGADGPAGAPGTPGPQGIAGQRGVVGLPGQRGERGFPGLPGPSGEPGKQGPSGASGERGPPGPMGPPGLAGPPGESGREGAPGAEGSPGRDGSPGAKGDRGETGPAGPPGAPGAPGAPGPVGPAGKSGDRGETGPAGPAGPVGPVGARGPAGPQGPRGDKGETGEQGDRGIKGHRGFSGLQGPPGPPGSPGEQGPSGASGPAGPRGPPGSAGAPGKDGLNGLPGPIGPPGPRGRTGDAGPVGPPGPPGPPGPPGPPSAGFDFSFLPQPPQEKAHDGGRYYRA
type I collagen, sequence (P08123 80-1119 partner limits assumed): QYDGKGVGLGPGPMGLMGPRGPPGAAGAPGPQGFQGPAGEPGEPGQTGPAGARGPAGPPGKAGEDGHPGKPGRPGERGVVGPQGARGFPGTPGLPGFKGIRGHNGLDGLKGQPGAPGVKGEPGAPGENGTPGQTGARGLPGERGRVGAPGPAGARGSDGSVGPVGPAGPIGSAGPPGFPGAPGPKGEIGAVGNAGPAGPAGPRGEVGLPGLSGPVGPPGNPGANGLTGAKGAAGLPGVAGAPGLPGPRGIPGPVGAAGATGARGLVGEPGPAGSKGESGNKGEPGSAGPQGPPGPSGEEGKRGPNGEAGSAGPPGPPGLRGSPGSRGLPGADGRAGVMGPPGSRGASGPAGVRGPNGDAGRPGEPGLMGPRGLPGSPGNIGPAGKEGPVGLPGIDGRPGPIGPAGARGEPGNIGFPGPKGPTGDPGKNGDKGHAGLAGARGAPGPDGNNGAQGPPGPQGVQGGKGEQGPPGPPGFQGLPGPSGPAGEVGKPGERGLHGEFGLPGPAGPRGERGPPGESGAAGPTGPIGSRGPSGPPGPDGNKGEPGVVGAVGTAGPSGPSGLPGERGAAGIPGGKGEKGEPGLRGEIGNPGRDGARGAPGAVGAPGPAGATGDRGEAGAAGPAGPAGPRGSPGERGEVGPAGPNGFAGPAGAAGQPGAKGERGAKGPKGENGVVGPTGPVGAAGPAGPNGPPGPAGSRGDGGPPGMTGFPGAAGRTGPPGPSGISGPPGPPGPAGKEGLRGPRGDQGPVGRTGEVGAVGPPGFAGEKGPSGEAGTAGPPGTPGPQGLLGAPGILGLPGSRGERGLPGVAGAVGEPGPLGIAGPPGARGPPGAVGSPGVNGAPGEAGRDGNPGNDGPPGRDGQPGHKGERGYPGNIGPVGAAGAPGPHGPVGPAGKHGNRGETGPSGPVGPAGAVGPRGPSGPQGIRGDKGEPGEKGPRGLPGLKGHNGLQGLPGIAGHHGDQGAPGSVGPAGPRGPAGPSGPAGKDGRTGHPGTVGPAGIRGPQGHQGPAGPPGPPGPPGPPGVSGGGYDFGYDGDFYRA
Text: as §1, §2, §3
Amino acid sequences of the random peptide region carried by discrete specifically-binding phage particles are indicated in Table II, together with the identity of the ligand bound to the microtiter wells in each of the three incubation-washing-elution cycles. […]

T1 sequence (P02452 162-1218 limits assumed): as the sequence (P02452 162-1218 limits assumed) above
T1 sequence (P08123 80-1119 partner limits assumed): as the sequence (P08123 80-1119 partner limits assumed) above

Substance: GYDGDFYRA [Peptide F8]
- inhibition of fibril assembly (in words) [1]: equally effective as the intact F3

Substance: YGSPHPSRPPGA (Phage Display Library Peptide)
- # of Isolated Particles Having this Sequence ([2]; eluent Type I Collagen): 10
- # of Isolated Particles Having this Sequence ([2]; eluent α1-776/796): 1→

Substance: QLSYGYDEKSTGGISVP [Peptide F4]
- inhibition of fibril assembly (in words) [1]: almost completely inhibited

Substance: GGGYDFGYD [Peptide F7]
- inhibition of fibril assembly (in words) [1]: equally effective as the intact F3

Substance: α1-776/797: peptide with the sequence of the amino acids in positions 776 to 797 of the α1(I) chain (IAGQRGVVGLPGQRGERGFPGL)
- competition with binding of biotinylated C-telopeptide of the α1(I) chain (peptide F2) to type I collagen ([3]; 50 mM biotinylated F2, 10 to 500 mM competitor, 25° C., 12 h): effectively competed
- competition with binding of biotinylated C-telopeptide of the α2(I) chain (peptide F3) to type I collagen ([3]; 50 mM biotinylated F3, 10 to 500 mM competitor, 25° C., 12 h): effectively competed

Substance: SHALPLTWSTAA (Phage Display Library Peptide)
- # of Isolated Particles Having this Sequence ([2]; eluent α1-776/796): 1
- # of Isolated Particles Having this Sequence (type I collagen; eluent α1-776/796): 10

Substance: LIQPPRYSTTVS (Phage Display Library Peptide)
- # of Isolated Particles Having this Sequence (type I collagen; eluent pH 2.2 buffer): 10

Substance: GGGYDFGYDGDFYRA [Peptide F3]
- effect on fibril formation when added during the lag period ([1]; 2.5 mM added during the lag phase): inhibited fibril formation
- effect on fibril assembly when added during the mid-propagation phase ([1]; 2.5 mM added during the mid-propagation phase): little of any effect
- appearance of fibrils by Dark field light microscopy ([1]; 2.5 mM, sealed chamber, 37° C., 24 hours): No fibrils appeared
- effect on fibril assembly if added at or before the first one-third of the lag phase ([1]; added at or before the first one-third of the lag phase): completely prevented fibril assembly
- effect on fibril assembly if added after the first one-third of the lag phase ([1]; added thereafter): much less effect
- inhibition of fibril assembly (in words) [1]: almost completely inhibited

Substance: AKGAAGLPGVAGAPGL [Peptide F1]
- competition for the binding site with biotinylated telopeptides ([3]; negative control, 10 to 500 mM): no competition
- inhibition of fibril assembly (in words) [1]: little if any inhibition

Substance: VHWWIPVSTGTA (Phage Display Library Peptide)
- # of Isolated Particles Having this Sequence ([2]; eluent pH 2.2 buffer): 6→

Substance: ADGPAGAPGTPGPQGIAGQRGVVGL [Peptide F6]
- inhibition of fibril assembly (in words) [1]: little if any inhibition

Substance: QLLEPVNLSTGP (Phage Display Library Peptide)
- # of Isolated Particles Having this Sequence ([2]; eluent α1-776/796): 7

Substance: DFRYRA [Peptide F10, DFRYRA]
- inhibition of fibril assembly (in words) [1]: Smaller effects

Substance: YGAGFDDGDYGYRYG [SC/F3, peptide having the same amino acid residues as F3, but in a scrambled order, reference compound]
- inhibition of fibril assembly (in words) [1]: no effect

Substance: GGGYSFGYS [F7/A]
- inhibition of fibril assembly (in words) [1]: no effect on inhibition of fibril assembly

Substance: GYDFGYDGDF [Peptide F9]
- inhibition of fibril assembly (in words) [1]: Smaller effects

Substance: GGGSDSGSD [F7/B]
- inhibition of fibril assembly (in words) [1]: abolished inhibitory effects

Substance: TFWHLTPPRGYY (Phage Display Library Peptide)
- # of Isolated Particles Having this Sequence ([2]; eluent pH 2.2 buffer): 3→

Substance: LLPHSVSIPPDA (Phage Display Library Peptide)
- # of Isolated Particles Having this Sequence (type I collagen; eluent Type I Collagen): 10
